Reference: patent US20150272950A1, “COMBINATION” (GLAXOSMITHKLINE LLC, priority 2012, published 2015)

System: SKOV3 cells (human ovarian carcinoma)
Assay: SKOV3 subcutaneous xenograft tumor growth inhibition in female SCID mice
Type: in vivo
Details: 21 days, alone, SKOV3 tumors in SCID mice
Protocol: Female SCID mice were implanted subcutaneously with 5×10^6 SKOV3 cells (human ovarian carcinoma). When the tumor volume reached 300-400 mm^3, mice were block randomized to different treatment groups (n=8 mice/group). Mice received AKT inhibitor, Compound B (in this assay, Compound B, is used in the form of the free or unsalted compound), at 10 or 30 mg/kg, once daily (SID) for 21 days in 20% PEG-400, 1% DMSO in water. Compound A (in this assay, Compound A, is used in the form of monohydrochloride salt) was administered at 100 mg/kg, twice/day (BID) for 21 days either alone or in combination with Compound B. Mice were weighed and tumors measured by calipers twice weekly. Tumor volumes were calculated using the formula: tumor volume=(Length×Width^2)/2. The percentage of tumor growth inhibition was calculated on each day of tumor measurement using the formula: 100×[1-(average growth of the compound-treated tumors/average growth of vehicle-treated control tumors)].

Compound | inhibition of tumor growth compared to vehicle treated mice (Compound B (free compound) 10 mg/kg, once daily) [%] | inhibition of tumor growth compared to vehicle treated mice (Compound B (free compound) 30 mg/kg, once daily) [%] | inhibition of tumor growth compared to vehicle treated mice (Compound A (monohydrochloride salt) 100 mg/kg, twice daily) [%]
Cn1ncc(Cl)c1-c1cc(C(=O)N[C@H](CN)Cc2ccc(F)c(F)c2)oc1Cl [Compound B, N-{(1S)-2-amino-1-[(3,4-difluorophenyl)methyl]ethyl}-5-chloro-4-(4-chloro-1-methyl-1H-pyrazol-5-yl)-2-furancarboxamide] | 67 | 86 | 
Cc1ccc(Nc2nccc(N(C)c3ccc4c(C)n(C)nc4c3)n2)cc1S(N)(=O)=O [Compound A, 5-[[4-[(2,3-dimethyl-2H-indazol-6-yl)methylamino]-2-pyrimidinyl]amino]-2-methylbenzenesulfonamide, reference compound] |  |  | 47
